Series [1] in a line: percutaneous permeability test using a Franz cell after electroporation, abdominal skin. As to the method: Calcein sodium salt was used as a model labeled drug at a concentration of 1 mM. The ingredients were stirred and solubilized to obtain the compositions for electroporation (solutions) of the present invention. The percutaneous absorption promotion actions of these compositions for electroporation were measured by percutaneous permeability test using a Franz cell. That is, a skin sample was collected from the abdomen of a hairless rat, and subcutaneous fat was removed from the sample. The skin sample was loaded in the Franz cell as a partition wall with its horny cell layer facing towards the donor side. The receiver side was filled with an isotonic phosphate-buffered saline (PBS). The donor side was filled with 3 mL of the aforementioned composition for electroporation of the present invention. The receiver side was stirred at 1200 rpm by using a star-head type stirrer. After the electroporation, 0.3 mL of the solution in the receiver side was serially collected in a time course and added with the same amount of isotonic phosphate-buffered saline (PBS) to examine the percutaneous permeability. […] The amount of calcein sodium salt was measured by a fluorometer. Further, as for the conditions of electroporation, ECM-830 produced by BTX was used, 10 pulses of 10 ms at 300 V was applied at intervals of 1 minute immediately after the drug administration, and then the power was turned off.
The same examination as in Example 1 was conducted by using various metal chlorides.
The same examination as in Example 1 was conducted by using trivalent metal ion chlorides. As for the electroporation conditions, 10 pulses of 10 ms at 300 V were applied at intervals of 1 second immediately after the drug administration. As the trivalent metal ion chlorides, iron chloride and aluminum chloride were used.
The same examination as in Example 1 was conducted by using FITC-dextran as a model labeled drug. As for the electroporation conditions, 10 pulses of 10 ms at 300 V were applied at intervals of 1 second immediately after the drug administration. As the FITC-dextran, FD4 (molecular weight: 4300), FD10 (molecular weight: 9600) and FD40 (molecular weight: 35600) were used.

Series [2] is described as follows: percutaneous permeability test using a Franz cell after electroporation, dorsal skin. The series is classed as in vitro ADME, hairless rat. An excerpt: However, dorsal skin of a hairless rat was used as the skin sample. […] As the model labeled drugs, sodium dexamethasone phosphate (DEX.Na), ritodrine hydrochloride (RIT), dimemorfan phosphate (DIM), caffeine (CAF), azelastine hydrochloride (AZR), tipepidine hibenzate (TIP), benzoic acid (BA), phenytoin (PEN) and testosterone (TES) were used.

Structures can show the parent of a compound that is named as a salt. Where two headings read alike, the source gives them in different places.

Take `[Cl-].[K+]` [potassium chloride]: in series [1] (Example 8, sample of Example 4 with metal chloride changed, all 150 mM, buprenorphine hydrochloride 0.02% by weight, FIGS. 5 and 6), the “percutaneous absorption promotion action (buprenorphine hydrochloride)” value is reported as “promoted percutaneous absorption”.
Take `CN1CCCC(n2nc(Cc3ccc(Cl)cc3)c3ccccc3c2=O)CC1` (stereo not drawn) [azelastine hydrochloride]: the “percutaneous absorption of the model labeled drug on addition of calcium ions” value in series [2] is reported as “significantly promoted percutaneous absorption”.
`CN1CCCC(=C(c2cccs2)c2cccs2)C1.O=C(O)c1ccccc1C(=O)c1ccc(O)cc1` [tipepidine hibenzate]: the “percutaneous absorption of the model labeled drug on addition of calcium ions” value in series [2] (Example 11, dorsal skin, addition of CaCl2, 10 pulses of 10 ms at 300 V at intervals of 1 second, FIG. 9) was “significantly promoted percutaneous absorption”.
For the molecule `[Ba+2].[Cl-].[Cl-]` [barium chloride], the “absorption of calcein during electroporation” value in series [1] (Example 9, various divalent metal chlorides added, FIG. 7) is given as “promoted the absorption of calcein”.
With `[Cl][Al]([Cl])[Cl]` [aluminum chloride], the “percutaneous absorption (calcein), trivalent metal ion chlorides vs calcium ions” value in series [1] is “neither of the trivalent metal ions significantly promoted percutaneous absorption”.
Still for that read-out and setting: to iron chloride belongs “neither of the trivalent metal ions significantly promoted percutaneous absorption”.

These data come from US6878548B2, “Composition for use in electroporation” (Pola Chemical Industries Inc., priority 2001, dated 2005).
